{"source": "paper PMC10777851", "about": "“SMT-738: a novel small-molecule inhibitor of bacterial lipoprotein transport targeting Enterobacteriaceae” (Antimicrobial Agents and Chemotherapy, 2023)", "key": {"[1]": {"system": "K. pneumoniae", "test": "MIC by broth microdilution (CLSI) against K. pneumoniae", "type": "cell-based, Klebsiella pneumoniae", "protocol": "MIC tests were performed by broth microdilution in-line with CLSI susceptibility testing standards ([20], [21]) either in-house or at IHMA (Europe and USA) or JMI Laboratories using cation-adjusted Mueller Hinton Broth."}, "[2]": {"system": "HepG2", "test": "Cytotoxicity (CellTiter-Glo), HepG2", "type": "cell-based", "settings": "HepG2, 24 h", "protocol": "HepG2 (ATCC, HB-8065) and HEK293 (ATCC, CRL-1573) were sourced from ATCC. For the cytotoxicity assay, cells were seeded onto 96-well plates, which were then incubated for 24 h in a 5% CO2 incubator at 37°C. On the day of the assay, 10-point, twofold serial dilutions of test compound were prepared in assay media (MEM + 10% FBS) in separate 96-well plates. Assay plates were removed from the incubator, and the media from all of the wells were removed, taking care not to disturb the cell layer. Compound-containing assay media or control media were added to the relevant wells. Assay plates were returned to the 5% CO2 incubator at 37°C for 24 h. CellTiter-Glo reagent (Promega, G7570) was used to determine the viability of the cells."}, "[3]": {"settings": "100 MDR clinical isolates incl. ESBL and CRE"}}, "note": "Several values for one entry are separate records, joined by “and”; a condition that tells them apart may be missing. Equal values may be shown once.", "data": [{"smiles": "Cc1cnccc1-c1[nH]c(N)nc1-c1ccc2c(c1)N(C(=O)C(C)(C)N)CCO2", "note": "[SMT-738]", "values": [{"measurement": "MIC Range K. pneumoniae (NDM)", "setting": "[1]; 15 clinical MDR NDM isolates (NDM-1, NDM-4, NDM-5) from India (2018)", "value": "0.5 to 1", "unit": "µg/mL"}, {"measurement": "MIC50 K. pneumoniae", "setting": "[1]; [3]", "value": 1, "unit": "µg/mL"}, {"measurement": "MIC90 K. pneumoniae", "setting": "[1]; [3]", "value": 2, "unit": "µg/mL"}, {"measurement": "MIC range K. pneumoniae", "setting": "[1]; [3]", "value": "0.25 to 8", "unit": "µg/mL"}, {"measurement": "MIC", "setting": "[1]; K. pneumoniae ATCC 43816", "value": 0.5, "unit": "µg/mL"}, {"measurement": "MIC (20% HS)", "setting": "[1]; K. pneumoniae IHMA 1769429, 20% human serum", "value": 1, "unit": "µg/mL"}, {"measurement": "MIC (50% HS)", "setting": "[1]; K. pneumoniae IHMA 1769429, 50% human serum", "value": 2, "unit": "µg/mL"}, {"measurement": "MIC (no HS)", "setting": "[1]; K. pneumoniae IHMA 1769429, no human serum", "value": 2, "unit": "µg/mL"}, {"measurement": "MIC (20% HS)", "setting": "[1]; K. pneumoniae IHMA 1770556, 20% human serum", "value": 0.5, "unit": "µg/mL"}, {"measurement": "MIC (50% HS)", "setting": "[1]; K. pneumoniae IHMA 1770556, 50% human serum", "value": 1, "unit": "µg/mL"}, {"measurement": "MIC (no HS)", "setting": "[1]; K. pneumoniae IHMA 1770556, no human serum", "value": 1, "unit": "µg/mL"}, {"measurement": "MIC", "setting": "[1]; K. pneumoniae NCTC 13438 (MDR, Class A KPC)", "value": "1.56 µM and 0.61 µg/mL"}, {"measurement": "MICref", "setting": "[1]; Kpm13438, reference MIC of the FoR experiments", "value": "3.13 µM and 1.22 µg/mL"}, {"measurement": "IC50", "setting": "[2]", "value": "> 200", "unit": "µM"}, {"measurement": "cytotoxicity IC50", "setting": "[2]", "value": "> 78.74", "unit": "µg/mL"}]}]}
